Literature values, collected in patent publication US20230338417A1, “Improved Pharmaceutical Preparation” (priority 2020, published 2023).

| Molecule | Acid dissociation constant as pKa at 298K |
| --- | --- |
| [O-][Cl+2]([O-])O [chloric acid] | 0 |
| peroxochloric acid | approx. 6.2 |
